One experiment has as its system M. suipneumoniae JF 435. Description: MIC against mycoplasma in vitro. Type of experiment: cell-based. The settings on record: Mesomycoplasma hyopneumoniae, JF435, 144 h.
The subject of experiment [1] is M. suipneumoniae J2206/183^b. Briefly: MIC against mycoplasma in vitro. Type of experiment: cell-based. The conditions noted are these: Mesomycoplasma hyopneumoniae, 144 h.
The test system of another experiment is M. suipneumoniae UCD 1. Briefly: MIC against mycoplasma in vitro. Type of experiment: cell-based. The conditions noted are these: Mesomycoplasma hyopneumoniae, UCD1, 144 h.
The test system of experiment [2] is M. suipneumoniae NCTC 10110. Briefly: MIC against mycoplasma in vitro. Type of experiment: cell-based. The conditions noted are these: Mesomycoplasma hyopneumoniae, NCTC10110, 144 h.
Experiment [3] deals with M. hyosynoviae ATCC 25591. Briefly: MIC against mycoplasma in vitro. Type of experiment: cell-based. The settings on record: 144 h; M. hyosynoviae ATCC 25591; 6 days, 37° C.; read-out: MIC.
The next experiment relates to M. bovis NCTC 10131. Briefly: microbe, parasite or virus in culture. Format: cell-based. The settings on record: NCTC10131, 144 h.
A further experiment deals with M. dispar NCTC 10125. Description: MIC against mycoplasma in vitro. Format: cell-based. The conditions noted are these: 144 h.
The test system of a further experiment is M. gallisepticum S6. Briefly: MIC against mycoplasma in vitro. The settings on record: Mycoplasmoides gallisepticum, 144 h; M. gallisepticum S6; 6 days, 37° C.; read-out: MIC. Type of experiment: cell-based.
A further experiment relates to M. pneumoniae ATCC 15492. Briefly: MIC against mycoplasma in vitro. Format: cell-based. The conditions noted are these: Mycoplasmoides pneumoniae, ATCC15492, 144 h; M. pneumoniae ATCC 15492; 6 days, 37° C.; read-out: MIC.
For another experiment, the system named is P. mirabilis 889. Description: MIC against human bacteria in vitro. The settings on record: Proteus mirabilis; P. mirabilis 889; 5% chocolated horse blood agar, 18 hours; read-out: MIC. Format: cell-based.
Experiment [4] has as its system Pasteurella multocida 1633. Description: MIC against human bacteria in vitro. The conditions noted are these: Pasteurella multocida 1633; 5% chocolated horse blood agar, 18 hours; read-out: MIC. Type of experiment: cell-based.
A further experiment deals with Staph. aureus Oxford. Description: MIC against human bacteria in vitro. Type of experiment: cell-based. The settings on record: Staphylococcus aureus; Staph. aureus Oxford; 5% chocolated horse blood agar, 18 hours; read-out: MIC.
In a further experiment the test system is E. coli NCTC 10418. Briefly: MIC against veterinary bacteria in vitro. The settings on record: Escherichia coli, NCTC10418, 18 h.
In a further experiment the test system is E. coli E1. Briefly: MIC against veterinary bacteria in vitro. The settings on record: Escherichia coli, E1, 18 h.
The subject of another experiment is Bord. bronchiseptica B08. Description: MIC against veterinary bacteria in vitro. The conditions noted are these: Bordetella bronchiseptica, B08, 18 h.
A further experiment relates to Bord. bronchiseptica B09. Briefly: MIC against veterinary bacteria in vitro. The conditions noted are these: Bordetella bronchiseptica, B09, 18 h.
The test system of another experiment is Past. multocida PA1. Description: MIC against veterinary bacteria in vitro. The conditions noted are these: Pasteurella multocida, PA1, 18 h.
The subject of a further experiment is Past. haemolytica PA5. Description: MIC against veterinary bacteria in vitro. The settings on record: Mannheimia haemolytica, PA5, 18 h.
The test system of experiment [5] is Staph. aureus B4 (pen. resistant). Briefly: MIC against veterinary bacteria in vitro. The conditions noted are these: Staphylococcus aureus, 18 h.
Procedure: (§1) The activity of the compounds of the Examples against various veterinarily important bacteria, was assayed in vitro using two-fold serial dilutions in Diagnostic Sensitivity Test Agar inoculated with 10^4 organisms.
The test system of experiment [6] is Strep. suis (group D) SPS11. Briefly: MIC against veterinary bacteria in vitro. The conditions noted are these: Streptococcus suis, 18 h.
Procedure: as §1
For another experiment, the system named is Strep. agalactiae SPA1. Description: MIC against veterinary bacteria in vitro. The settings on record: Streptococcus agalactiae, SPA1, 18 h.
The mark [7] stands for this setting: M. suipneumoniae JF 435, 6 days, 37° C., read-out: MIC.
The mark [8] stands for this setting: M. suipneumoniae J2206/183^b, 6 days, 37° C., read-out: MIC.
Where [9] appears, read: M. suipneumoniae UCD 1, 6 days, 37° C., read-out: MIC.
The mark [10] stands for this setting: M. suipneumoniae NCTC 10110, 6 days, 37° C., read-out: MIC.

In brackets after ≈: the same amount, converted by molar mass. Like-named read-outs stand apart in the source and are kept apart here.

For 3 compounds, MIC results are on record in patent publication US5041567A, “Antibacterial monic acid derivatives” (Beecham Group plc, priority 1982, dated 1991).

Procedure for Bord. bronchiseptica B08: as §1
Procedure for Bord. bronchiseptica B09: as §1
Procedure for E. coli E1: as §1
Procedure for E. coli NCTC 10418: as §1
Procedure for Past. haemolytica PA5: as §1
Procedure for Past. multocida PA1: as §1
Procedure for Strep. agalactiae SPA1: as §1

With `C/C(=C\c1ncc(-c2ccc(C(=O)O)cc2)o1)C[C@@H]1OC[C@H](C[C@@H]2O[C@H]2[C@@H](C)[C@H](C)O)[C@@H](O)[C@H]1O` [Example 17, Sodium 4-[2-(1-normon-2-yl)-5-oxazolyl] benzoate A], the MIC in the experiment with M. suipneumoniae JF 435 (setting [7]) was 5 µg/mL; in experiment [1] (setting [8]), 5 µg/mL; in the experiment with M. suipneumoniae UCD 1 (setting [9]), 5 µg/mL; in [2] (setting [10]) it was above 10 µg/mL; in [3], above 10 µg/mL; against M. bovis NCTC 10131 it was 2.5 µg/mL. For the same compound, the MIC is 2.5 µg/mL in the experiment with M. dispar NCTC 10125; above 10 µg/mL with M. gallisepticum S6; above 10 µg/mL in the experiment on M. pneumoniae ATCC 15492; above 64 µg/mL with P. mirabilis 889; 8 µg/mL in [4]; 32 µg/mL with Staph. aureus Oxford. Besides, the MIC with E. coli NCTC 10418 is above 80 µg/mL; against E. coli E1, above 80 µg/mL; against Bord. bronchiseptica B08 it was above 80 µg/mL; in the experiment on Bord. bronchiseptica B09, 40 µg/mL; in the experiment on Past. multocida PA1, 10 µg/mL; in the experiment on Past. haemolytica PA5, above 80 µg/mL. The MIC in experiment [5] worked out at 10 µg/mL; in experiment [6], 40 µg/mL; with Strep. agalactiae SPA1, 40 µg/mL.

Consider `C/C(=C\c1cc(-c2ccccc2)no1)C[C@@H]1OC[C@H](C[C@@H]2O[C@H]2[C@@H](C)[C@H](C)O)[C@@H](O)[C@H]1O` [Example 31, 5-(1-Normon-2-yl)-3-phenylisoxazole A], for which the MIC in the experiment with M. suipneumoniae JF 435 (setting [7]) was found to be 10 µg/mL (≈ 22.5 µM); in [1] (setting [8]), 10 µg/mL (≈ 22.5 µM); in the experiment on M. suipneumoniae UCD 1 (setting [9]), 10 µg/mL (≈ 22.5 µM); in experiment [2] (setting [10]), 10 µg/mL (≈ 22.5 µM); in experiment [3], 10 µg/mL (≈ 22.5 µM); against M. bovis NCTC 10131, 1 µg/mL (≈ 2.25 µM). Also, the MIC was 2.5 µg/mL (≈ 5.64 µM) against M. dispar NCTC 10125; above 10 µg/mL with M. gallisepticum S6; above 10 µg/mL in the experiment on M. pneumoniae ATCC 15492; above 128 µg/mL with P. mirabilis 889; 64 µg/mL (≈ 144 µM) in experiment [4]; 64 µg/mL (≈ 144 µM) in the experiment with Staph. aureus Oxford. The MIC is above 80 µg/mL with E. coli NCTC 10418; above 80 µg/mL with E. coli E1; above 80 µg/mL in the experiment with Bord. bronchiseptica B08; 80 µg/mL (≈ 180 µM) in the experiment on Bord. bronchiseptica B09; above 80 µg/mL in the experiment with Past. haemolytica PA5; 10 µg/mL (≈ 22.5 µM) in experiment [5]. The same compound yielded an MIC in [6] above 80 µg/mL.

In the case of `C/C(=C\c1cc(-c2ccccc2)on1)C[C@@H]1OC[C@H](C[C@@H]2O[C@H]2[C@@H](C)[C@H](C)O)[C@@H](O)[C@H]1O` [Example 34, 3-(1-Normon-2-yl)-5-phenylisoxazole A], the MIC in the experiment on M. suipneumoniae JF 435 worked out at 2.5 µg/mL (≈ 5.64 µM); in experiment [1] it was 2.5 µg/mL (≈ 5.64 µM); with M. suipneumoniae UCD 1 it was 2.5 µg/mL (≈ 5.64 µM); in [2] it was 2.5 µg/mL (≈ 5.64 µM); in [3], 5 µg/mL (≈ 11.3 µM); against M. bovis NCTC 10131 it was 0.25 µg/mL (≈ 0.564 µM). Besides, the MIC in the experiment with M. dispar NCTC 10125 (M. dispar NCTC 10125, 6 days, 37° C., read-out: MIC) is 0.5 µg/mL (≈ 1.13 µM); in the experiment on M. gallisepticum S6 it was above 10 µg/mL; with M. pneumoniae ATCC 15492, 5 µg/mL (≈ 11.3 µM); with P. mirabilis 889, above 128 µg/mL; in experiment [4], 64 µg/mL (≈ 144 µM); in the experiment on Staph. aureus Oxford it was 8 µg/mL (≈ 18 µM). Moreover, the MIC against E. coli NCTC 10418 was above 80 µg/mL; in the experiment with E. coli E1, above 80 µg/mL; against Bord. bronchiseptica B08, above 80 µg/mL; against Bord. bronchiseptica B09, 40 µg/mL (≈ 90.2 µM); in the experiment with Past. haemolytica PA5, above 80 µg/mL; in experiment [5] it was 2.5 µg/mL (≈ 5.64 µM). The MIC was 80 µg/mL (≈ 180 µM) in [6] and 40 µg/mL (≈ 90.2 µM) against Strep. agalactiae SPA1.
